According to US11185488B2, “Skin external preparation composition for moisturizing skin containing 1,2,3,4,6-penta-O-galloyl-β-D-glucose” (AMOREPACIFIC CORPORATION, priority 2017, dated 2021):

How the values were obtained:
Assay type in all cases: cell-based
filaggrin = test: Gene expression level of filaggrin (RNA separation and RT-PCR); conditions: neonatal keratinocytes, 1 ppm, 2 days; for Increase in filaggrin expression(%): corrected to RPL13A
Experimental: Neonatal keratinocytes (obtained from Lonza) was dispensed into a 60 mm cell culture dish at a density of 1.25×10^6 cells/dish using KGM medium, and then cultured at 37° C. in a 5% CO2 incubator up to about 80% confluency. Then, eight compounds including PGG from soybean, green tea, ginseng, and other natural products were selected as test substances (Table 1), and the cells were treated with each of these compounds at 1 ppm and cultured for 2 days. After the culture, the medium was removed, and 1 ml of Trizol (Invitrogen) was added, and mRNA was isolated according to an RNA isolation method of Invitrogen. mRNA was quantified at 260 nm using an ultraviolet detector (Hewlett Packard), and RT-PCR (Reverse Transcription-Polymerase Chain Reaction) was performed. For genetic analysis of each sample, correction was performed based on the complementary gene, RPL13A, and the expression level of filaggrin for each sample is shown in Table 1 below.

Neonatal keratinocytes = test: Evaluation of cytotoxicity of PGG (cell viability); conditions: PGG 0, 1, 2, 4 ppm, cultured 4 days, FIG. 1
Experimental: Neonatal keratinocytes (obtained from Lonza) was dispensed into a 60 mm cell culture dish at a density of 1.25×10^6 cells/dish using KGM medium, and then cultured at 37° C. in a 5% CO2 incubator up to about 80% confluency. Then, the cells were treated with PGG at concentrations of 0 ppm, 1 ppm, 2 ppm, and 4 ppm, cultured for 4 days, and then the viability of the cells was confirmed.

loricrin (LOR) = test: Gene increase experiment for loricrin (LOR) (RNA isolation and RT-PCR); conditions: keratinocytes, 4 days, corrected to RPLP0, FIG. 2
Experimental: (§1) Neonatal keratinocytes was dispensed into a 60 mm cell culture dish at a density of 1.25×10^6 cells/dish using KGM medium, and then cultured at 37° C. in a 5% CO2 incubator up to about 80% confluency. Then, the keratinocytes were treated with 0.2 ppm or 1 ppm of PGG, cultured for 4 days. After the culture, the medium was removed and 1 ml of Trizol (Invitrogen) was added thereto, and mRNA was isolated according to the RNA isolation method of Invitrogen. After quantifying mRNA at 260 nm using a CV detector (HEWLETT PACKARD), RT-PCR (Reverse transcription-polymerase chain reaction) was performed by using the primers of LOR and IVL (LOR-HS01894962_s1, IVL HS00846307_s1, respectively, both of which were obtained from Life Technologies). For genetic analysis of each sample, the correction was performed based on the complementary gene, RPLP0, and the results are shown in Table 2 below.

involucrin (IVL) = test: Gene increase experiment for involucrin (IVL) (RNA isolation and RT-PCR); conditions: keratinocytes, 4 days, corrected to RPLP0, FIG. 2
Experimental: as §1

COc1cc([C@H]2OC[C@H]3[C@@H]2CO[C@@H]3c2cc(OC)c(O)c(OC)c2)cc(OC)c1O [Syringaresinol]
Increase in filaggrin expression(%) (filaggrin): 103%

O=c1c(-c2ccc(O)c(O)c2)coc2cc(O)ccc12 [7,3′,4′-trihydroxyisoflavone]
Increase in filaggrin expression(%) (filaggrin): 110%

O=c1c(-c2ccc(O)cc2)coc2cc(O)c(O)cc12 [6,7,4′-trihydroxyisoflavone]
Increase in filaggrin expression(%) (filaggrin): 103%

O=C(OC[C@H]1O[C@@H](OC(=O)c2cc(O)c(O)c(O)c2)[C@H](OC(=O)c2cc(O)c(O)c(O)c2)[C@@H](OC(=O)c2cc(O)c(O)c(O)c2)[C@@H]1OC(=O)c1cc(O)c(O)c(O)c1)c1cc(O)c(O)c(O)c1 [PGG, 1,2,3,4,6-penta-O-galloyl-β-D-glucose]
rate of increase in the expression of filaggrin versus control group (filaggrin): more than 2 times
Increase in filaggrin expression(%) (filaggrin): 229%
cell viability (Neonatal keratinocytes): no significant difference in cell viability
expression level of loricrin gene compared to control group (loricrin (LOR); 0.2 ppm): almost no difference compared to the control group
increase of loricrin gene compared to control group (loricrin (LOR); 1 ppm): ≥ 2 times
expression level of involucrin gene compared to control group (involucrin (IVL); 0.2 ppm): three-fold or more increase
increase of involucrin gene compared to control group (involucrin (IVL); 1 ppm): 5 times

C[C@]12C[C@@H](O)[C@@H]3C[C@@]1(O[C@@H]1O[C@H](CO)[C@@H](O)[C@H](O)[C@H]1O)[C@@]3(COC(=O)c1ccccc1)C(=O)O2 [Albiflorin]
Increase in filaggrin expression(%) (filaggrin): 107%

C[C@@]12C[C@@]3(O)O[C@@H](O1)[C@]1(COC(=O)c4ccccc4)[C@H]3C[C@@]12O[C@@H]1O[C@H](CO)[C@@H](O)[C@H](O)[C@H]1O [Paeoniflorin]
Increase in filaggrin expression(%) (filaggrin): 116%

Oc1cc(O)c2c(c1)O[C@H](c1ccc(O)c(O)c1)[C@H](O)C2 [(−)-Epicatechin(EC), (−)-Epicatechin]
Increase in filaggrin expression(%) (filaggrin): 108%

O=c1c(O[C@@H]2O[C@H](CO)[C@@H](O)[C@H](O)[C@H]2O)c(-c2ccc(O)cc2)oc2cc(O)cc(O)c12 [Astragalin]
Increase in filaggrin expression(%) (filaggrin): 105%
